# Laboratory results as given in patent US20180305341A1 (RAQUALIA PHARMA INC., priority 2015, published 2018).
# Molecular target: T1, human TRPM8 (Homo sapiens, UniProt Q7Z2W7)
# T1 construct: expressed in transfected cells
# Experiment: Menthol-induced Ca2+ influx in HEK293 cells stably expressing human TRPM8
# Type: cell-based
# Conditions: 30 microM menthol, read-out: IC50 against TRPM8
# Experimental: Measurement of the Menthol-Induced Ca^2+ Influx in HEK293 Cells Stably Expressing Human TRPM8
# A cell-based Ca^2+ influx assay using HEK293 cells stably expressing human TRPM8 is used to identify the activity of compounds.
# HEK293 cells stably expressing human TRPM8 are grown in T175 flasks at 37° C. in a 5% CO2 humidified incubator to about 80% confluence. Media composition consists of Dulbecco's Modified Eagle Medium (high glucose), 10% fetal calf serum (FCS), 100 units/mL Penicillin, 100 microg/mL Streptomycin and 600 microg/mL Geneticine. At 24 hours prior to assay, cells are seeded in poly-D-lysine coated 384-well plates (BD FALCON) at a density of 30,000 cells per well in culture medium and grown overnight in 5% CO2 at 37° C. On the assay day, growth media is removed and cells are loaded with 0.5 microM Fluo4-AM (Molecular Probes) and 0.005% Pluronic F-127 dissolved in assay buffer (Hank's balanced salt solution (HBSS), 19.4 mM HEPES pH 7.4, 2.5 mM Probenecid) for 1 hour at room temperature. After washing with assay buffer, the cells are preincubated with various concentrations of the compounds for 5 min. The changes in intracellular calcium concentration by addition of 30 microM menthol are monitored by the cell imaging technology by Hamamatsu Photonics Functional Drug Screening System (FDSS).
# The IC50 values for compounds of the present invention are determined from 11-point dose-response studies. Curves are generated using the average of duplicate wells for each data point. Finally, the IC50 values are calculated with the best-fit dose curve determined by XLfit (ID Business Solutions Ltd.).
# T1 sequence (Q7Z2W7 whole entry): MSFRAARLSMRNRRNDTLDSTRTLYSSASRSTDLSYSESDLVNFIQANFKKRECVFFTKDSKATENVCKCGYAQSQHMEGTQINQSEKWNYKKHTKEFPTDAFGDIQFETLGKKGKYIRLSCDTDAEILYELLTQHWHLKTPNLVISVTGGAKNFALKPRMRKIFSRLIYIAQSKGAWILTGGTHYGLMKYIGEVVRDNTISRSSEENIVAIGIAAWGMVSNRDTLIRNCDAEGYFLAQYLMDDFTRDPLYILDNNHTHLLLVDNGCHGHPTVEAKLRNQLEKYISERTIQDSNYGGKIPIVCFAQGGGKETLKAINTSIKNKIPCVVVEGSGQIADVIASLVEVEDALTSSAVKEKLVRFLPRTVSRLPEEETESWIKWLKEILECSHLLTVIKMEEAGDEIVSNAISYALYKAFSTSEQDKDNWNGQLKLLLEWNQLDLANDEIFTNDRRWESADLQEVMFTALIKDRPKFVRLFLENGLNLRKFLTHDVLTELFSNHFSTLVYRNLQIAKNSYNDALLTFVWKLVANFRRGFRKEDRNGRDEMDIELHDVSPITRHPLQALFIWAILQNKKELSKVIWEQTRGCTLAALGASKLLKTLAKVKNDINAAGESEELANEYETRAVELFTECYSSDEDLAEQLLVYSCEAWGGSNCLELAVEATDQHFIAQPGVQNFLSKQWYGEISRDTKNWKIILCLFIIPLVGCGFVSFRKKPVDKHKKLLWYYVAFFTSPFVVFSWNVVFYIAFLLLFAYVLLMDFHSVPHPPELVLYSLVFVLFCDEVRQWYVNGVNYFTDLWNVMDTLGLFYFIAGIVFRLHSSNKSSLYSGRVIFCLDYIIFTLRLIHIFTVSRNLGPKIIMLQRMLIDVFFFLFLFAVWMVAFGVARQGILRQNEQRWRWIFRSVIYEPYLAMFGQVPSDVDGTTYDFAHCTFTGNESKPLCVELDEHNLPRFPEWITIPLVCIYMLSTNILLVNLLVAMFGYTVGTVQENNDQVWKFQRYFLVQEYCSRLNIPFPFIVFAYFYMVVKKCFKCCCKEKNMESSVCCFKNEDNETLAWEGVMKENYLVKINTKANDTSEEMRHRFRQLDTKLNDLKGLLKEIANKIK
row,IC50,Compound
1,< 50 nM,"CC1=NC2(CCC(F)(F)CC2)C(=O)N1CC(=O)c1ccc(-n2c(C)nc3cccnc32)cc1 [Example 6, 8,8-difluoro-2-methyl-3-(2-(4-(2-methyl-3H-imidazo[4,5-b]pyridin-3-yl)phenyl)-2-oxoethyl)-1,3-diazaspiro[4.5]dec-1-en-4-one]"
2,< 50 nM,"CC1=NC2(CCCCC2)C(=O)N1CC(=O)c1ccc(-n2c(C)nc3ccccc32)cc1 [Example 2, 2-methyl-3-(2-(4-(2-methyl-1H-benzo[d]imidazol-1-yl)phenyl)-2-oxoethyl)-1,3-diazaspiro[4.5]dec-1-en-4-one]"
3,< 50 nM,"CC1=NC2(CCC(F)(F)CC2)C(=O)N1CC(=O)c1ccc(-n2c(C)nc3ccccc32)cc1 [Example 5, 8,8-difluoro-2-methyl-3-(2-(4-(2-methyl-1H-benzo[d]imidazol-1-yl)phenyl)-2-oxoethyl)-1,3-diazaspiro[4.5]dec-1-en-4-one]"
4,< 50 nM,"CCC1=NC2(CCC(F)(F)CC2)C(=O)N1CC(=O)c1ccc(Oc2cccnn2)cc1 [Example 3, 2-ethyl-8,8-difluoro-3-(2-oxo-2-(4-(pyridazin-3-yloxy)phenyl)ethyl)-1,3-diazaspiro[4.5]dec-1-en-4-one]"
5,< 100 nM,"CC1=NC2(CCC(F)(F)CC2)C(=O)N1CC(=O)c1ccc(-c2nnccc2C)cc1 [Example 4, 8,8-difluoro-2-methyl-3-(2-(4-(4-methylpyridazin-3-yl)phenyl)-2-oxoethyl)-1,3-diazaspiro[4,5]dec-1-en-4-one]"
6,< 50 nM,CC1=NC2(CCC(F)(F)CC2)C(=O)N1CC(=O)c1ccc(Oc2cccnn2)cc1 [Example 1]
